{"source": "patent US6716858B1", "about": "“Methods for inhibiting diabetic complications” (Kansas University Medical Center, priority 1995, dated 2004)", "key": {"[1]": {"system": "post-Amadori AGE formation, BSA Amadori intermediate", "assay": "Interrupted (post-Amadori) ribose glycation assay, BSA", "type": "biochemical, bovine", "procedure": "ELISA detection of AGE products. The general method of Engvall (1981, Methods Enzymol. 70:419-439) was used to perform the ELISA. Typically, glycated protein samples were diluted to approximately 1.5 ug/ml in 0.1 M sodium carbonate buffer of pH 9.5 to 9.7. The protein was coated overnight at room temperature onto 96-well polystyrene plates by pippetting 200 ul of the protein solution in each well (0.3 ug/well). After coating, the protein was washed from the wells with a saline solution containing 0.05% Tween-20. The wells were then blocked with 200 ul of 1% casein in carbonate buffer for 2 h at 37° C. followed by washing. Rabbit anti-AGE antibodies were diluted at a titer of about 1:350 in incubation buffer, and incubated for 1 h at 37° C., followed by washing. In order to minimize background readings, antibodies R479 used to detect glycated RNase were raised against glycated BSA, and antibodies R618 used to detect glycated BSA and glycated Hb were raised against glycated RNase. An alkaline phosphatase-conjugated antibody to rabbit IgG was then added as the secondary antibody at a titer of 1:2000 or 1:2500 (depending on lot) and incubated for 1 h at 37° C., followed by washing. The p-nitrophenylphosphate substrate solution was then added (200 ul/well) to the plates, with the absorbance of the released p-nitrophenolate being monitored at 410 nm with a Dynatech MR 4000 microplate reader.\nGlycation was first carried out by incubating protein (10 mg/ml) with 0.5 M ribose at 37° C. in 0.4 M phosphate buffer at pH 7.5 containing 0.2% sodium azide for 24 h in the absence of inhibitors. Glycation was then interrupted to remove excess and reversibly bound (Schiff base) sugar by extensive dialysis against frequent cold buffer changes at 4° C. The glycated intermediate samples containing maximal amount of Amadori product and little AGE (depending on protein) were then quickly warmed to 37° C. without re-addition of ribose. This initiated conversion of Amadori intermediates to AGE products in the absence or presence of various concentrations (typically 3, 15 and 50 mM) of prospective inhibitors. Aliquots were taken and frozen at various intervals for later analysis. The solutions were kept in capped tubes and opened only to remove timed aliquots that were immediately frozen for later carrying out the various analyses."}, "[2]": {"system": "Sprague-Dawley rats, glomerular changes", "type": "in vivo, rat", "conditions": "for effect of treatment on loss of Heparan Sulfate Proteoglycan side-chain staining (mAb JM-403): rats injected with Amadori-RSA or AGE-RSA (both cases); for microalbuminuria / albuminuria: rats receiving Amadori-RSA or AGE-RSA", "procedure": "Male Sprague-Dawley rats (Sasco, 100 g) were used. After a 1 week adaptation period, rats were placed in metabolic cages to obtain a 24 hour urine specimen for 2 days before administration of injections. Rats were then divided into experimental and control groups and given tail vein injections with either saline, unmodified RSA (50 mg/kg), Amadori-RSA (50 mg/kg), NaBH4-reduced Amadori-RSA (50 mg/kg), or AGE-RSA (50 mg/kg).\nRats injected with Amadori-RSA and AGE-RSA were then either left untreated, or further treated by the administration of either aminoguanidine (AG; 25 mg/kg), pyridoxamine (PM; 25 mg/kg), or a combination of AG and PM (10 mg/kg each) through the drinking water. Body weight and water intake of the rats were monitored weekly in order to adjust dosages. At the conclusion of the experimental study the rats were placed in metabolic cages to obtain 24 hour urine specimen for 2 days prior to sacrificing the animals.\nAfter perfusion with saline, kidney sections were fixed in ice-cold 10% neutral buffered formalin. Paraffin-embedded tissue sections from all rat groups (n=4 per group) were processed for staining with Harris' alum hematoxylin and eosin (H&E), perodic acid/Schiff reagent (PAS), and alcian blue (pH 1.0 and pH 2.5) stains for histological examination. The alcian blue sections were scored by two investigators in a blinded fashion.\nParrafin-embedded sections were deparaffinized and then blocked with 10% goat serum in PBS for 30 min at room temperature. […] The sections were then rinsed for 30 min with PBS in the dark, mounted in aqueous mounting media for immunocytochemistry (Biomeda), and cover slipped. Sections were scored in a blinded fashion. Kidney sections were evaluated by the number and intensity of glomerular staining in 5 regions around the periphery of the kidney. Scores were normalized for the immunofluorescent score per 100 glomeruli with a scoring system of 0-3.\nAll animals studies were carried out in conformance with institutional guidelines for animal research protocols. Male Sprague-Dawley 100 g rats (Sasco Co., Omaha Nebr.) were used in these studies. After a 1 week adaptation period, rats were placed in metabolic cages for 2 days to get two 24 hour urine specimens before starting treatment. Rats were then given daily single tail vein injections for 6 weeks according to the following treatment groups: saline, unmodified RSA (50 mg/kg), Amadori-RSA (50 mg/kg), NaBH4-reduced Amadori-RSA (50 mg/kg), and AGE-RSA (50 mg/kg). Groups of rats injected with Amadori-RSA or AGE-RSA were also administered aminoguanidine (25 mg/kg/day), pyridoxamine (25 mg/kg/day), a combination of the two (10 mg/kg/day each), or with nothing added to the drinking water. Body weight and water intake of the rat were monitored weekly in order to adjust dosages. At the conclusion of the study, the rats were placed in metabolic cages for two days to get two 24 hour urine specimens before sacrificing the animals.\nTotal protein in urine was determined by Bio-Rad assay. Albumin in urine was determined by competitive ELISA using rabbit anti-rat serum albumin (Cappell) as primary antibody (1:2000) and goat anti-rabbit IgG (Sigma) as a secondary antibody (1:2000). Urine was tested with Multistix 8 SG (Miles) for glucose, ketone, specific gravity, blood, pH, protein, nitrite and leukocytes. Creatinine measurements were performed with a Beckman creatinine analyzer II. Intracardiac blood samples were collected before termination and were used in the determination of creatinine clearance, blood glucose (glucose oxidase, Sigma), fructosamine (nitroblue tetrazolium, Sigma), and glycated Hb (Glycotest II analytical boronate columns, Pierce).\nAfter perfusion with saline, kidney sections were fixed in ice-cold 10% neutral buffered formalin. […]"}, "[3]": {"system": "glycation of ribonuclease A (RNase)", "assay": "Uninterrupted glycation of ribonuclease A with glucose, anti-AGE ELISA", "type": "biochemical, bovine", "conditions": "RNase 1 mg/ml, 1.0 M glucose, 6 weeks; inhibitors 0.5, 3, 15 and 50 mM", "procedure": "Uninterrupted Glycation with Glucose Bovine serum albumin, ribonuclease A, and human hemoglobin were incubated with glucose at 37° C. in 0.4 M sodium phosphate buffer of pH 7.5 containing 0.02% sodium azide. The protein, glucose (at 1.0 M), and prospective inhibitors (at 0.5, 3, 15 and 50 mM) were introduced into the incubation mixture simultaneously. Solutions were kept in the dark in capped tubes. Aliquots were taken and immediately frozen until analyzed by ELISA at the conclusion of the reaction. The incubations were for 3 weeks (Hb) or 6 weeks (RNase, BSA).\nELISA detection of AGE products. The general method of Engvall (1981, Methods Enzymol. 70:419-439) was used to perform the ELISA. Typically, glycated protein samples were diluted to approximately 1.5 ug/ml in 0.1 M sodium carbonate buffer of pH 9.5 to 9.7. […] In order to minimize background readings, antibodies R479 used to detect glycated RNase were raised against glycated BSA, and antibodies R618 used to detect glycated BSA and glycated Hb were raised against glycated RNase. […] The p-nitrophenylphosphate substrate solution was then added (200 ul/well) to the plates, with the absorbance of the released p-nitrophenolate being monitored at 410 nm with a Dynatech MR 4000 microplate reader."}, "[4]": {"conditions": "24 h in 0.5 M ribose, then free ribose removed, 37° C."}, "[5]": {"conditions": "Amadori-RSA injected rats, 6 weeks"}, "[6]": {"conditions": "rats injected with Amadori-RSA or AGE-RSA"}, "[7]": {"conditions": "6 weeks, n = 4, average with standard error"}}, "note": "Like-named read-outs stand apart in the source and are kept apart here."}
{"smiles": "N=C(N)NN", "note": "[aminoguanidine, reference compound]", "values": [{"measurement": "inhibition of post-Amadori AGE formation", "setting": "[1]; 50 mM inhibitor", "value": "about 20%"}, {"measurement": "inhibition of post-Amadori AGE formation", "setting": "[1]; [4]", "value": "Comparable results"}, {"measurement": "effect of treatment on glomerular albumin cross-linking", "setting": "[2]; AGE-RSA injected rats", "value": "intermediate results but did not lead to statistically significant differences from either the controls or from the untreated subgroup"}, {"measurement": "effect of treatment on glomerular volume (GV)", "setting": "[2]; AGE-RSA injected rats, 6 weeks", "value": "significant elevation in GV persisted"}, {"measurement": "effect of treatment on HS loss", "setting": "[2]; Amadori-RSA injected rats", "value": "appeared to not prevent this loss"}, {"measurement": "effect of treatment on glomerular volume (GV)", "setting": "[2]; [5]", "value": "No statistically significant differences"}, {"measurement": "effect of treatment on elevated glomerular staining for RSA", "setting": "[2]; [6]", "value": "not with AG"}, {"measurement": "effect of treatment on increase in average glomerular volume", "setting": "[2]; [6]", "value": "No effect"}]}
{"smiles": "Cc1ncc(CO)c(CN)c1O", "note": "[pyridoxamine]", "values": [{"measurement": "inhibition of antigenic AGE formation (ELISA)", "setting": "[3]", "value": "more effective that aminoguanidine"}, {"measurement": "Alcian Blue pH 1.0, scoring of glomerular staining (sulfated glycosaminoglycans)", "setting": "[2]; [7]", "value": "2.62 ± 0.24"}, {"measurement": "Alcian Blue pH 2.5, scoring of glomerular staining (acidic glycosaminoglycans)", "setting": "[2]; [7]", "value": "1.56 ± 0.21"}, {"measurement": "HS core protein (Ab BL-31), scoring of glomerular staining", "setting": "[2]; [7]", "value": "234 ± 8"}, {"measurement": "effect of treatment on glomerular albumin cross-linking", "setting": "[2]; AGE-RSA injected rats", "value": "completely blocked"}, {"measurement": "effect of treatment on glomerular volume (GV)", "setting": "[2]; AGE-RSA injected rats, 6 weeks", "value": "completely prevented"}, {"measurement": "effect of treatment on glomerular albumin cross-linking", "setting": "[2]; Amadori-RSA injected rats", "value": "significantly lower cross-linking than Aminoguanidine"}, {"measurement": "effect of treatment on glomerular volume (GV)", "setting": "[2]; [5]", "value": "no significant changes from controls"}, {"measurement": "Creat C-2wk", "setting": "[2]; creatinine clearance at 2 weeks, n = 4", "value": "0.66 ± 0.07 ml/(min*100g)"}, {"measurement": "Creat C-6wk", "setting": "[2]; creatinine clearance at 6 weeks, n = 4", "value": "0.66 ± 0.17 ml/(min*100g)"}, {"measurement": "effect of treatment on elevated glomerular staining for RSA", "setting": "[2]; [6]", "value": "Significant reduction of this effect"}, {"measurement": "effect of treatment on increase in average glomerular volume", "setting": "[2]; [6]", "value": "A significant reduction of this effect"}, {"measurement": "effect of treatment on reduced Heparan Sulfate Proteoglycan Core protein staining", "setting": "[2]; [6]", "value": "A reduction of this effect"}, {"measurement": "effect of treatment on loss of Heparan Sulfate Proteoglycan side-chain staining (mAb JM-403)", "setting": "[2]", "value": "completely prevented this loss"}, {"measurement": "effect of treatment on loss of Heparan Sulfate Proteoglycan side-chain staining (mAb JM-403)", "setting": "[2]; listed as PM", "value": "A significant reduction of this effect"}, {"measurement": "microalbuminuria / albuminuria", "setting": "[2]; 6 weeks", "value": "very low intra-group scatter and to the lowest means"}, {"measurement": "microalbuminuria / albuminuria", "setting": "[2]; 6 weeks, listed as PM", "value": "none was seen if PM was co-administered"}]}
{"smiles": "Cc1ncc(C[n+]2csc(CCO[P@](=O)(O)OP(=O)(O)O)c2C)c(N)n1", "note": "[thiamine pyrophosphate]", "values": [{"measurement": "inhibition of antigenic AGE formation (ELISA)", "setting": "[3]", "value": "more effective that aminoguanidine"}, {"measurement": "inhibition of post-Amadori AGE formation", "setting": "[1]; [4]", "value": "inhibited AGE formation more effectively than the other B1 derivatives"}]}
